In ChEMBL document CHEMBL4673209, “Discovery of a novel potent GPR40 full agonist” (Bioorg Med Chem Lett, 2018):
pEC50, pIC50: −log10 of the molar value. Active and inactive are the calls of the source. The rule behind the calls is not given here.

Columns and labels:
[1] = target: T1, Cytochrome P450 2C8 (Homo sapiens, UniProt P10632); experiment: Inhibition of recombinant CYP2C8 (unknown origin); format: ADME
T1 sequence (P10632 whole entry): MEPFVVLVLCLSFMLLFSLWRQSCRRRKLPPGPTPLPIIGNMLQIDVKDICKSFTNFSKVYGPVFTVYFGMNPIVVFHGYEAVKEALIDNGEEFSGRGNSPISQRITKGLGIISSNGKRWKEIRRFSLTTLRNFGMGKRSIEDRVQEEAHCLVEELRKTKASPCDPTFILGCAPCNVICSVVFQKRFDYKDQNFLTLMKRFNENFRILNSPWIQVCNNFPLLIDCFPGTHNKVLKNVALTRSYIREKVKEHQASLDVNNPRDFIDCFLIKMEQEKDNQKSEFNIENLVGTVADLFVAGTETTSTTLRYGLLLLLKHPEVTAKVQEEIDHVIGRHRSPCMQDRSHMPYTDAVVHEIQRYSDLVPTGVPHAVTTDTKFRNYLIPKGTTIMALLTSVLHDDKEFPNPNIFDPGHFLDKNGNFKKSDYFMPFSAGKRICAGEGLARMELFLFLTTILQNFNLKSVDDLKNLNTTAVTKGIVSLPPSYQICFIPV

[2] = Protein binding in human plasma; format: ADME, cell-free; conditions: read-out: PPB (converted)
[3] = target: T2, Cytochrome P450 1A2 (Homo sapiens, UniProt P05177); experiment: Inhibition of CYP1A2 (unknown origin); format: ADME
T2 sequence (P05177 whole entry): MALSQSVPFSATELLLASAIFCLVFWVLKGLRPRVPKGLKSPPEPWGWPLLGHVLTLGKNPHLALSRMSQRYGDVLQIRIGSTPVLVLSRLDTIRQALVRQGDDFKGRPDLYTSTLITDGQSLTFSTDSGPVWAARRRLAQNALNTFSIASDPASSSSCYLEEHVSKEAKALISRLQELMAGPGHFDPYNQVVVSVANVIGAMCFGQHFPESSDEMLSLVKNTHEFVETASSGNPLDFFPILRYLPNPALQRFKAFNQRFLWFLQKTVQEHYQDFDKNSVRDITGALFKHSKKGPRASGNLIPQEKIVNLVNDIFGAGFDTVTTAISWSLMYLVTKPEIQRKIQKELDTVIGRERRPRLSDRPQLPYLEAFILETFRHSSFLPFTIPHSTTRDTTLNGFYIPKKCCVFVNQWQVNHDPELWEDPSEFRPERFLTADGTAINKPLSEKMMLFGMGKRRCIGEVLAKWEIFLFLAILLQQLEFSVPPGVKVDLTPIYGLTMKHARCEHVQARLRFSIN

[4] = target: Cytochrome P450 3A4 (Homo sapiens, UniProt P08684); experiment: Inhibition of CYP3A4 (unknown origin) using midazolam as substrate; format: ADME
[5] = target: T3, Peroxisome proliferator-activated receptor gamma (Homo sapiens) (UniProt P37231); experiment: Agonist activity at PPARgamma (unknown origin); format: cell-based; conditions: HEK293
T3 sequence (whole entry): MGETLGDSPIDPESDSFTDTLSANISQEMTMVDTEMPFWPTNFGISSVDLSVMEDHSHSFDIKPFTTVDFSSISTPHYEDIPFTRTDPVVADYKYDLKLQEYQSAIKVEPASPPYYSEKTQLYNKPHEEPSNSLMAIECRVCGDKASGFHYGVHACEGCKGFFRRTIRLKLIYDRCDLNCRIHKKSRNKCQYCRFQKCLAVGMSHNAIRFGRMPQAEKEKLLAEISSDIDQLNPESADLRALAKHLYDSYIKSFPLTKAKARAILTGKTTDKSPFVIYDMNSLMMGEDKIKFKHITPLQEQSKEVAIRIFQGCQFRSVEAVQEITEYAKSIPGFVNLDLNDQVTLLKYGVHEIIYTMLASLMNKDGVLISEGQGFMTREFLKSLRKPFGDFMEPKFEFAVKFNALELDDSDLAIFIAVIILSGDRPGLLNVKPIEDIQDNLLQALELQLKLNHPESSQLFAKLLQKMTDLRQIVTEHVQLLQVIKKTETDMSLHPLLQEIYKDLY

[6] = test system: Rattus norvegicus; experiment: Anti-glycemic activity in fasted Sprague-Dawley ZDF rat assessed as reduction in post-prandial hyperglycemia by measuring AUC(0 to 2 hrs) for blood glucose at 3 mg/kg administered for 1 day and measured on day 1 by OGTT; format: functional
[7] = target: T4, Free fatty acid receptor 1 (Homo sapiens, UniProt O14842); experiment: Agonist activity at human GPR40 receptor expressed in CHOK1 cells assessed as induction of IP1 accumulation at 10 uM relative to AM1638; format: functional, cell-based; conditions: CHO-K1, filed as agonist
[8] = Apparent permeability from basolateral to apical side in dog MDCK-MDR1 cells; format: ADME, cell-based, Canis lupus familiaris
[9] = Volume of distribution at steady state in rat; format: ADME; conditions: in vivo, read-out: Vdss
[10] = Oral bioavailability in rat; format: ADME, organism-based; conditions: in vivo
[11] = Intrinsic clearance in rat assessed as half-life at 1 uM; format: ADME
[12] = target: T4, Free fatty acid receptor 1; experiment: Agonist activity at human GPR40 transfected in HEK293 cells assessed as increase in intracellular calcium level incubated for 1 hr by Fluo-8 dye based fluorescence analysis; format: functional, cell-based; conditions: hek293

T4 sequence (O14842 whole entry): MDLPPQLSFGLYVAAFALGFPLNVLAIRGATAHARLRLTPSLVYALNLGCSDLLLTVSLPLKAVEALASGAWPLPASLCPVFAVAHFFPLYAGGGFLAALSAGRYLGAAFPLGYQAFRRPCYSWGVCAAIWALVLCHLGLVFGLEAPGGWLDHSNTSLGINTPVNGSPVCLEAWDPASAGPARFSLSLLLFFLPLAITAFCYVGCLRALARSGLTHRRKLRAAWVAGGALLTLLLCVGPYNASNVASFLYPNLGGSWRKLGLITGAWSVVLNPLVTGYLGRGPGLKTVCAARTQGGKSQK
Chain of Cytochrome P450 3A4 (P08684 whole entry): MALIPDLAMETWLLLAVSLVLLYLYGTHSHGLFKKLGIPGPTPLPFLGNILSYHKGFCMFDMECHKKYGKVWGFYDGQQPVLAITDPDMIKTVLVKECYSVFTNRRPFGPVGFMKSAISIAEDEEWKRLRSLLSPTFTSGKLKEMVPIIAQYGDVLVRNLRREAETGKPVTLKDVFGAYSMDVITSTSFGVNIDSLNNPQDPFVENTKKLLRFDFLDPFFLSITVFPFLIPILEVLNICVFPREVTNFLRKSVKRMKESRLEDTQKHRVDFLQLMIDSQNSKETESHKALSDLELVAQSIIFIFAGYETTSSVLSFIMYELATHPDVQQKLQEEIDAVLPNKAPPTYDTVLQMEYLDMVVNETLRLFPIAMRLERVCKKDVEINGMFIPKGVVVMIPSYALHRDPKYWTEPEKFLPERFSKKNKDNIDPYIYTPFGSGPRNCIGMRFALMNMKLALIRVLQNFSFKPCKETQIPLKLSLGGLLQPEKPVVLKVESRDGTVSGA

Structure (SMILES): COc1cc(-c2ncc(COc3cccc([C@@H](CC(=O)O)C4CC4)c3)nc2CC(C)C)c(F)cn1
- pIC50 [1]: 5.01
- fraction unbound [2]: 0.0012
- pIC50 [3]: < 5.00
- pIC50 [4]: 5.10
- Activity [5]: inactive
- Activity [6]: 15896 ng/mL.hr
- Activity [7]: 121%
- Papp B→A [8]: 82 ×10⁻⁶ cm/s
- Vd [9]: 0.384 L/kg
- bioavailability [10]: 123%
- half-life at 1 µM [11]: 48 min
- pEC50 [12]: 8.70
